Data reported in ChEMBL document CHEMBL5038660, “Computational and Structure-Based Development of High Potent Cell-Active Covalent Inhibitor Targeting the Peptidyl-Prolyl Isomerase NIMA-Interacting-1 (Pin1)” (J Med Chem, 2022).
Activity calls are given as the source filed them. No cut-off for these calls is given here.

Legend:
[1] = molecular target: T1, Peptidyl-prolyl cis-trans isomerase NIMA-interacting 1 (Homo sapiens, UniProt Q13526); test: Ratio of test compound IC50 to ZL-Pin01 IC50 for N-terminal-GST-fused human Pin1 expressed in Escherichia coli BL21(DE3) by fluorescence polarization assay
[2] = molecular target: T1, Peptidyl-prolyl cis-trans isomerase NIMA-interacting 1; test: Displacement of 5-FITC-(Acp)-Bth-D-pThr-Pip-2-NaI-Q from N-terminal-GST-fused human Pin1 expressed in Escherichia coli BL21(DE3) incubated for 12 hrs by fluorescence polarization assay
[3] = molecular target: T1, Peptidyl-prolyl cis-trans isomerase NIMA-interacting 1; test: Covalent binding affinity to N-terminal His6-tagged human Pin1 expressed in Escherichia coli BL21 (DE3) incubated for overnight by mass spectrometry
MDA-MB-231 [4] = test: Downregulation of cyclin D1 protein expression in human MDA-MB-231 cells transfected with PIN1 siRNA at 5 to 10 uM by western blot analysis; format: functional, cell-based; conditions: dose 5-10 µM
MDA-MB-231 [5] = test: Antiproliferative activity against human MDA-MB-231 cells assessed as reduction in cell viability incubated for 3 days by CellTiter-Glo luminescent assay; format: functional, cell-based; conditions: MDA-MB-231, 72 h
MDA-MB-468 [6] = test: Antiproliferative activity against human MDA-MB-468 cells assessed as reduction in cell viability incubated for 3 days by CellTiter-Glo luminescent assay; format: functional, cell-based; conditions: MDA-MB-468, 72 h
MDA-MB-468 [7] = test: Antiproliferative activity against human MDA-MB-468 cells assessed as reduction in cell viability incubated for 8 days with 48 hrs fresh compound replenishment by CellTiter-Glo luminescent assay; format: functional, cell-based; conditions: time 8.0 day
[8] = molecular target: T1, Peptidyl-prolyl cis-trans isomerase NIMA-interacting 1; test: Inhibition of Pin1 in human MDA-MB-231 cells assessed as induction of Pin1 degradation incubated for 16 hrs by immunoblot analysis; format: cell-based; conditions: dose 2.5-15 µM
[9] = molecular target: T1, Peptidyl-prolyl cis-trans isomerase NIMA-interacting 1; test: Inhibition of Pin1 in human MDA-MB-231 cells assessed as reduction in MCL-1 level at 5 to 10 uM by western blot analysis; format: cell-based; conditions: dose 5-10 µM
[10] = molecular target: T1, Peptidyl-prolyl cis-trans isomerase NIMA-interacting 1; test: Inhibition of Pin1 in human MDA-MB-231 cells assessed as reduction in c-Myc level at 5 to 10 uM by western blot analysis; format: cell-based; conditions: dose 5-10 µM
[11] = molecular target: T1, Peptidyl-prolyl cis-trans isomerase NIMA-interacting 1; test: Inhibition of Pin1 in human MDA-MB-231 cells assessed as reduction in cyclin D1 level at 5 to 10 uM by western blot analysis; format: cell-based; conditions: dose 5-10 µM
MDA-MB-231 [12] = test: Downregulation of MCL-1 gene expression in PIN-1 knockout human MDA-MB-231 cells at 4 to 8 uM incubated for 24 hrs by qRT-PCR analysis; format: functional, cell-based; conditions: dose 4-8 µM
MDA-MB-231 [13] = test: Downregulation of CCND1 gene expression in PIN-1 knockout human MDA-MB-231 cells at 4 to 8 uM incubated for 24 hrs by qRT-PCR analysis; format: functional, cell-based; conditions: dose 4-8 µM
MDA-MB-231 [14] = test: Downregulation of C-MYC gene expression in PIN-1 knockout human MDA-MB-231 cells at 4 to 8 uM incubated for 24 hrs by qRT-PCR analysis; format: functional, cell-based; conditions: dose 4-8 µM
[15] = molecular target: T1, Peptidyl-prolyl cis-trans isomerase NIMA-interacting 1; test: Covalent binding affinity to Cys113 residue of N-terminal His6-tagged human Pin1 expressed in Escherichia coli BL21 (DE3) incubated for overnight followed by tryptic digestion for 16 hrs by HPLC-nESI MS/MS scan analysis
[16] = molecular target: T1, Peptidyl-prolyl cis-trans isomerase NIMA-interacting 1; test: Covalent binding affinity to N-terminal His6-tagged human Pin1 expressed in Escherichia coli BL21 (DE3) assessed as increase in 418.16 Da molecular weight incubated for overnight by mass spectrometry
Homo sapiens = organism: Homo sapiens; test: Displacement of 5-FITC-(Acp)-Bth-D-pThr-Pip-2-NaI-Q from human Pin1 C57A mutant expressed in Escherichia coli BL21(DE3) incubated for 12 hrs by fluorescence polarization assay
[17] = system: Peptidyl-prolyl cis-trans isomerase NIMA-interacting 1 (Homo sapiens), Q13526 [C113A]; test: Displacement of 5-FITC-(Acp)-Bth-D-pThr-Pip-2-NaI-Q from human Pin1 C113A mutant expressed in Escherichia coli BL21(DE3) incubated for 12 hrs by fluorescence polarization assay
[18] = system: Peptidyl-prolyl cis-trans isomerase NIMA-interacting 1 (Homo sapiens), Q13526 [C113A]; test: Covalent binding affinity to N-terminal His6-tagged human Pin1 C113A mutant expressed in Escherichia coli BL21(DE3) at compound:protein ratio of 3:1 to 5:1 incubated for overnight by mass spectrometry
[19] = molecular target: T1, Peptidyl-prolyl cis-trans isomerase NIMA-interacting 1; test: Displacement of 5-FITC-(Acp)-Bth-D-pThr-Pip-2-NaI-Q from N-terminal-GST-fused human Pin1 expressed in Escherichia coli BL21(DE3) assessed as maximum rate of inactivation incubated for 12 hrs by fluorescence polarization assay
[20] = molecular target: T1, Peptidyl-prolyl cis-trans isomerase NIMA-interacting 1; test: Displacement of 5-FITC-(Acp)-Bth-D-pThr-Pip-2-NaI-Q from N-terminal-GST-fused human Pin1 expressed in Escherichia coli BL21(DE3) assessed as Kinact/Ki ratio incubated for 12 hrs by fluorescence polarization assay
MDA-MB-468 [21] = test: Inhibition of colony formation in human MDA-MB-468 cells at 0.25 to 4 uM incubated for 12 days with 48 hrs fresh compound replenishment by crystal violet staining based analysis; format: functional, cell-based; conditions: dose 0.25-4 µM, time 12.0 day
MDA-MB-231 [22] = test: Inhibition of colony formation in human MDA-MB-231 cells at 0.25 to 4 uM incubated for 12 days with 48 hrs fresh compound replenishment by crystal violet staining based analysis; format: functional, cell-based; conditions: dose 0.25-4 µM, time 12.0 day
MDA-MB-231 [23] = test: Downregulation of MCL-1 protein expression in human MDA-MB-231 cells transfected with PIN1 siRNA at 5 to 10 uM by western blot analysis; format: functional, cell-based; conditions: dose 5-10 µM
MDA-MB-231 [24] = test: Downregulation of c-Myc protein expression in human MDA-MB-231 cells transfected with PIN1 siRNA at 5 to 10 uM by western blot analysis; format: functional, cell-based; conditions: dose 5-10 µM
[25] = molecular target: T1, Peptidyl-prolyl cis-trans isomerase NIMA-interacting 1; test: Inhibition of Pin1 in human MDA-MB-231 cells assessed as reduction in MCL-1 gene expression incubated for 24 hrs by qRT-PCR analysis; format: cell-based; conditions: dose 4-8 µM
[26] = molecular target: T1, Peptidyl-prolyl cis-trans isomerase NIMA-interacting 1; test: Inhibition of Pin1 in human MDA-MB-231 cells assessed as reduction in C-MYC gene expression incubated for 24 hrs by qRT-PCR analysis; format: cell-based; conditions: dose 4-8 µM
[27] = molecular target: T1, Peptidyl-prolyl cis-trans isomerase NIMA-interacting 1; test: Inhibition of Pin1 in human MDA-MB-231 cells assessed as reduction in CCND1 gene expression incubated for 24 hrs by qRT-PCR analysis; format: cell-based; conditions: dose 4-8 µM
[28] = molecular target: T1, Peptidyl-prolyl cis-trans isomerase NIMA-interacting 1; test: Displacement of 5-FITC-(Acp)-Bth-D-pThr-Pip-2-NaI-Q from N-terminal-GST-fused human Pin1 expressed in Escherichia coli BL21(DE3) at 20 to 50 uM incubated for 12 hrs by fluorescence polarization assay; conditions: dose 20-50 µM
MDA-MB-468 [29] = test: Inhibition of colony formation in human MDA-MB-468 cells at 0.63 to 10 uM incubated for 12 days with 48 hrs fresh compound replenishment by crystal violet staining based analysis; format: functional, cell-based; conditions: dose 0.63-10 µM, time 12.0 day
MDA-MB-231 [30] = test: Inhibition of colony formation in human MDA-MB-231 cells at 0.63 to 10 uM incubated for 12 days with 48 hrs fresh compound replenishment by crystal violet staining based analysis; format: functional, cell-based; conditions: dose 0.63-10 µM, time 12.0 day
[31] = molecular target: T1, Peptidyl-prolyl cis-trans isomerase NIMA-interacting 1; test: Covalent binding affinity to N-terminal His6-tagged human Pin1 expressed in Escherichia coli BL21 (DE3) assessed as increase in 292.1 Da molecular weight incubated for overnight by mass spectrometry
[32] = molecular target: T1, Peptidyl-prolyl cis-trans isomerase NIMA-interacting 1; test: Inhibition of Pin1 in human MDA-MB-231 cells assessed as reduction in MCL-1 gene expression at 8 to 16 uM incubated for 24 hrs by qRT-PCR analysis; format: cell-based; conditions: dose 8-16 µM
[33] = molecular target: T1, Peptidyl-prolyl cis-trans isomerase NIMA-interacting 1; test: Inhibition of Pin1 in human MDA-MB-231 cells assessed as reduction in C-MYC gene expression at 8 to 16 uM incubated for 24 hrs by qRT-PCR analysis; format: cell-based; conditions: dose 8-16 µM
[34] = molecular target: T1, Peptidyl-prolyl cis-trans isomerase NIMA-interacting 1; test: Inhibition of Pin1 in human MDA-MB-231 cells assessed as reduction in CCND1 gene expression at 8 to 16 uM incubated for 24 hrs by qRT-PCR analysis; format: cell-based; conditions: dose 8-16 µM

CC(Cl)C(=O)N1CCC2(CC1)SCC(=O)N2Cc1ccc(-c2ccccc2)o1 (centres undefined)
Ratio IC50 [1]: > 10 | IC50 [2]: > 100 µM

N#Cc1ccc(-c2ccc(CN3C(=O)CSC34CCN(C(=O)CCl)CC4)o2)cc1
Ratio IC50 [1]: 0.33 | IC50 [2]: 0.44 µM

COc1ccc(-c2ccc(CN3C(=O)CSC34CCN(C(=O)CCl)CC4)o2)cc1
Ratio IC50 [1]: 0.19 | IC50 [2]: 0.25 µM

O=C(CCl)N1CCC2(CC1)SCC(=O)N2CCc1ccc(-c2ccccc2)o1
Ratio IC50 [1]: 0.8 | IC50 [2]: 1.06 µM

Cc1ccc(-c2ccc(CN3C(=O)CSC34CCN(C(=O)CCl)CC4)o2)cc1
Ratio IC50 [1]: 0.2 | IC50 [2]: 0.27 µM

C=CC(=O)N1CCC2(CC1)SCC(=O)N2Cc1ccc(-c2ccccc2)o1
Ratio IC50 [1]: > 10 | IC50 [2]: > 100 µM

O=C(CCl)N1CCC2(CC1)SCC(=O)N2Cc1ccc(-c2ccccc2)o1
Ratio IC50 [1]: 0.2 | IC50 [2]: 0.26 µM

O=C(CCl)N1CCC2(CC1)SCC(=O)N2Cc1ccc(-c2cccc3ccccc23)o1
Activity [3]: 100% | Ratio IC50 [1]: 0.05 | inhibition (MDA-MB-231 [4]): inactive | IC50 (MDA-MB-231 [5]): 2.8 µM | IC50 (MDA-MB-468 [6]): 1.9 µM | Activity (MDA-MB-468 [7]): Active | inhibition [8]: Dose-Dependent Effect | inhibition [9]: Active | inhibition [10]: Active | inhibition [11]: Active | inhibition (MDA-MB-231 [12]): inactive | inhibition (MDA-MB-231 [13]): inactive | inhibition (MDA-MB-231 [14]): inactive | IC50 [2]: 0.067 µM | Activity [15]: Active | Activity [16]: Active | inhibition (Homo sapiens): Active | inhibition [17]: inactive | Activity [18]: inactive | Kinact [19]: 0.058 min⁻¹ | Ratio [20]: 27.1 M⁻¹ s⁻¹ | inhibition (MDA-MB-468 [21]): Active | inhibition (MDA-MB-231 [22]): Active | inhibition (MDA-MB-231 [23]): inactive | inhibition (MDA-MB-231 [24]): inactive | inhibition [25]: Dose-Dependent Effect | inhibition [26]: Dose-Dependent Effect | inhibition [27]: Dose-Dependent Effect

CC(=O)N1CCC2(CC1)SCC(=O)N2Cc1ccc(-c2cccc3ccccc23)o1
Ratio IC50 [1]: > 10 | IC50 [2]: > 100 µM

O=C(CCl)N1CCC2(CC1)SCC(=O)N2Cc1ccc(-c2ccc3ccccc3c2)o1
Ratio IC50 [1]: 0.29 | IC50 [2]: 0.38 µM

O=C(CCl)N1CCC2(CC1)SCC(=O)N2Cc1ccc(-c2ccc(C(F)(F)F)cc2)o1
Ratio IC50 [1]: 0.54 | IC50 [2]: 0.72 µM

O=C(CCl)N1CCC2(CC1)SCC(=O)N2Cc1ccco1
Activity [3]: 100% | inhibition [28]: > 50% | IC50 (MDA-MB-231 [5]): 12.8 µM | IC50 (MDA-MB-468 [6]): 8.6 µM | inhibition (MDA-MB-468 [29]): Active | inhibition (MDA-MB-231 [30]): Active | IC50 [2]: 1.33 µM | Activity [31]: Active | Activity [15]: Active | inhibition [32]: Active | inhibition [33]: Active | inhibition [34]: Active

O=C(CCl)N1CCC2(CC1)SCC(=O)N2c1ccc(Cl)cc1
inhibition [28]: > 50%

CC(=O)N1CCC2(CC1)SCC(=O)N2Cc1ccco1
Ratio IC50 [1]: > 10 | IC50 [2]: > 100 µM

CS(=O)(=O)c1ccc(-c2ccc(CN3C(=O)CSC34CCN(C(=O)CCl)CC4)o2)cc1
Ratio IC50 [1]: 0.27 | IC50 [2]: 0.36 µM

O=C(CCl)N1CCC2(CC1)SCC(=O)N2Cc1ccc(Br)o1
Ratio IC50 [1]: 0.46 | IC50 [2]: 0.61 µM

O=C(CCl)N1CCC2(CC1)SCC(=O)N2Cc1ccc(Cl)o1
Ratio IC50 [1]: 0.42 | IC50 [2]: 0.56 µM

O=C(CCl)N1CCC2(CC1)SCC(=O)N2Cc1ccc(-c2ccc(-c3ccccc3)cc2)o1
Ratio IC50 [1]: 1 | IC50 [2]: 1.32 µM

O=C(CCl)N1CCC2(CC1)SCC(=O)N2Cc1ccccc1
inhibition [28]: > 50%

Cc1ccc(N2C(=O)CSC23CCN(C(=O)CCl)CC3)cc1
inhibition [28]: > 50%

Cc1cccc(N2C(=O)CSC23CCN(C(=O)CCl)CC3)c1
inhibition [28]: > 50%
